Measurements taken from article PMC4241293, “Sulfa Drugs as Inhibitors of Carbonic Anhydrase: New Targets for the Old Drugs” (BioMed Research International, 2014).

Columns and labels:
[1] = target: bovine cytosolic carbonic anhydrase II (bCA II) (Bos taurus, UniProt P00921); experiment: In vitro carbonic anhydrase inhibition assay (p-nitrophenyl acetate hydrolysis); type: biochemical; conditions: for inhibition at 500 µM: at 0.5 mM concentration of tested compounds, mean ± SEM; for IC50: mean of three independent experiments ± SEM
Procedure: Carbonic anhydrase inhibition was measured by the reported method after standardization of reaction conditions such as concentration of enzyme and substrate, buffer pH, and duration of reaction. The method is based on spectrophotometric determination p-nitrophenol, the CA catalyzed hydrolysis product of p-nitrophenyl acetate. The reaction mixture consisted of 60 μL of 50 mM Tris-sulfate buffer (pH 7.6, containing 0.1 mM ZnCl2), 10 μL (0.5 mM) test compound in 1% DMSO, and 10 μL (50 U) bovine enzyme per well. […] Substrate, p-nitrophenyl acetate (6 mM stock using <5% acetonitrile in buffer), 20 μL was freshly prepared and added per well to achieve […] concentration per well. Total reaction volume was made to 100 μL.
The CA active site residues involved in direct zinc binding are His94, His96, and His119. In addition the substrate (CO2) association pocket, Thr199 loop, and the histidine proton shuttle mechanism (for regeneration of active site Zn bound hydroxide ion) are essential for CA catalytic activity and are highly conserved in all alpha class CAs. For this reason initial screening against bCA-II was carried out.

Sequence of bovine cytosolic carbonic anhydrase II (bCA II) (P00921 whole entry): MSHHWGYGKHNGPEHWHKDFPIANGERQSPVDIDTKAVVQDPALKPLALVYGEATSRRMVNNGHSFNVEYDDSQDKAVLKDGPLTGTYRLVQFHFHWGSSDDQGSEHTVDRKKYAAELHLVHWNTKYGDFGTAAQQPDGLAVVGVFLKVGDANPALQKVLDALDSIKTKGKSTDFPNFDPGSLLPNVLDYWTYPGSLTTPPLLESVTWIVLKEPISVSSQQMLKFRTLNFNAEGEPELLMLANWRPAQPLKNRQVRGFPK

Row | inhibition at 500 µM [1] [%] | IC50 [1] [µM] | melting point [°C] | SMILES
1 | 41.7 | – | – | Cc1cc(C)nc(NS(=O)(=O)c2ccc(N)cc2)n1 [4b, sulfadimidine, reference compound]
2 | 42.4 | – | – | Nc1ccc(S(=O)(=O)Nc2cncc(Cl)n2)cc1 [5b, sulfachloropyrazine, reference compound]
3 | 51.8 | – | – | Nc1ccc(S(=O)(=O)Nc2cnc3ccccc3n2)cc1 [2b, sulfaquinoxaline, reference compound]
4 | – | 14.9 ± 0.02 | 327 to 329 | Cc1cc(C)nc(NS(=O)(=O)c2ccc(Nc3nc(Cl)nc(Cl)n3)cc2)n1 [4a, 4-[(4,6-Dichloro-1,3,5-triazin-2-yl)amino]-N-(4,6-dimethylpyrimidin-2-yl)benzenesulfonamide]

Continued, compound first:

Row | SMILES | inhibition at 500 µM [1] [%] | IC50 [1] [µM] | melting point [°C]
5 | O=S(=O)(Nc1cncc(Cl)n1)c1ccc(Nc2nc(Cl)nc(Cl)n2)cc1 [5a, N-(6-Chloropyrazin-2-yl)-4-[(4,6-dichloro-1,3,5-triazin-2-yl)amino]benzenesulfonamide] | – | 1.49 ± 0.006 | 236 to 238
6 | O=S(=O)(Nc1cnc2ccccc2n1)c1ccc(Nc2nc(Cl)nc(Cl)n2)cc1 [2a, 4-[(4,6-Dichloro-1,3,5-triazin-2-yl)amino]-N-(quinoxalin-2-yl)benzenesulfonamide] | – | 105.3 ± 0.16 | 268 to 270
7 | O=S(=O)(Nc1ncccn1)c1ccc(Nc2nc(Cl)nc(Cl)n2)cc1 [3a, 4-[(4,6-Dichloro-1,3,5-triazin-2-yl)amino]-N-(pyrimidin-2-yl)benzenesulfonamide] | – | 24.9 ± 0.03 | 221 to 223
8 | Cc1ccnc(NS(=O)(=O)c2ccc(Nc3nc(Cl)nc(Cl)n3)cc2)n1 [1a, 4-[(4,6-Dichloro-1,3,5-triazin-2-yl)amino]-N-(4-methylpyrimidin-2-yl)benzenesulfonamide] | – | 4.14 ± 0.02 | 235 to 237
